Test results: patent publication EP2077092A2, “System and Methods for Screening or Analyzing Targets” (Taipei Veterans General Hospital, priority 2007, dated 2009)

Columns and labels:
Assay type in all cases: cell-based, Sprague-Dawley (SD) rats
[1] = tested on: Bax; test: Real-time RT-PCR of Bax mRNA in IM-treated NSCs; details: Day 3, Day 5, and Day 7 of IM-treated NSCs
Protocol: (§1) All animals used were treated in accordance with the Animal Care and Use Committee guideline at Taipei Veterans General Hospital. The protocol of the present study was also approved by the committee. Adult Sprague-Dawley (SD) rats (8 weeks old, 250 g) were anesthetized with intraperitoneal phenobarbital (Sigma, USA), and the location of their brains was mapped. Then, the brain […]. In brief, tissues from the hippocampus of adult rats were dissociated and incubated in Hank's balanced salt solution (HBSS) containing collagenase (78 units/ml) and hyaluronidase (38 units/ml) for 10 minutes at 37°C. The tissues were then mechanically dissected and placed in a trypsin solution (1.33 mg/ml) at 37°C for another 10 minutes. Dissociated cells were then centrifuged at 150 GG for 5 minutes. […] Viable cells were counted by trypan blue exclusion and plated as 5000 cells/200 µL per well in 96-well plates (Coming Inc, Acton, MA, USA) with no substrate pretreatment. […]
(§2) For real-time RT-PCR, the total RNA was extracted using the RNAeasy kit (Qiagen, Valencia, CA, USA). […] The quantification in the unknown samples was performed with LightCycler Relative Quantification Software version 3.3 (Roche Molecular Systems, Alameda, CA, USA). […]

[2] = tested on: NSCs; test: MTT cell viability assay of IM-treated NSCs; details: 3 µM IM, Day 3, Day 5 and Day 7 cultures, p<0.05
Protocol: as §1, with “37°C.” for “37°C. The tissues were then mechanically dissected and placed in a trypsin solution (1.33 mg/ml) at 37°C for another 10 minutes. Dissociated cells were then centrifuged at 150 GG for 5 minutes.”
IM was purchased from Sigma Chem. Co., St Louis, MO, USA. […] The amount of MTT fromazon product was determined using a microplate reader and the absorbance was measured at 560 nm (SpectraMax 250, Molecular Devices, Sunnyvale, CA, USA). […] The activities of caspases 8 and 3 (Medical and Biological Laboratories Co., Ltd., Nagoya, Japan), and the concentration of IL-6, IL-1 and TNF-α (Pharmingen, San Diego, CA, USA) were determined by ELISA kits and quantified by reading at 490 nm (MRX; Dynatech Laboratories, Chantilly, VA, USA). Each individual sample was analyzed in triplicate.

[3] = tested on: caspase 8; test: Caspase 8 activity ELISA in LPS-treated NSCs; details: LPS (100 ng/ml) exposure, Day 7, vs LPS-treated NSCs without treatment, p<0.05
[4] = tested on: IL-1β; test: IL-1β ELISA in LPS-treated NSCs; details: vs only LPS-treated NSCs, IM 3 µM, p<0.05
[5] = tested on: MAP2; test: Real-time RT-PCR of MAP2 mRNA in IM-treated NSCs; details: Days 5 and Day 7 IM-treated NSCs vs non IM-treated NSCs, p<0.05
Protocol: as §1, §2

[6] = tested on: NSCs; test: Immunofluorescent assay of MAP-2-positive cells in differentiating NSCs; details: Day 7 culture of IM-treated NSCs vs non IM-treated NSCs, p<0.05

## CN(C)CCCN1c2ccccc2CCc2ccccc21 [IM, imipramine]
[1]
  expression of Bax: not activated
[2]
  cell survival (MTT assay): significantly increased
[3]
  apoptotic activities of caspase 8: significantly decreased
[4]
  IL-1β production in the LPS-treated NSCs: effectively reduces
[5]
  mRNA levels of MAP2: significantly increased
[6]
  percentages of MAP-2-positive cells: significantly increased
